Source: patent publication US20100150930A1, “MAGE-11 AS A MARKER FOR ENDOMETRIAL RECEPTIVITY TO EMBRYO TRANSPLANTATION AND A MARKER AND THERAPEUTIC TARGET IN CASTRATION-RECURRENT PROSTATE CANCER” (The University of North Carolina at Chapel Hill, priority 2007, published 2010)

What was measured:
MAGE-11 mRNA [1] = experiment: MAGE-11 mRNA by real-time PCR in ECC-1 cells; type: cell-based, human; conditions: for change in MAGE-11 mRNA levels: 100 Units/ml hCG, 10 nM progesterone, 10 nM DHT or 10 ng/ml EGF
Procedure: (§1) For MAGE-11 and AR mRNA in the human endometrial ECC-1 and Ishikawa cell lines, cells were passed 4 days prior to each experiment into medium without phenol red containing 5% charcoal stripped serum (Atlanta Biologicals, Lawrenceville, Ga.). […] RNA was extracted using RNeasy Plus Mini kit (Qiagen, Valencia, Calif.) and cDNA prepared from 4 μg total RNA as above. β-Glucuronidase (GusB) forward primer 5′-[…]-3′ (SEQ ID NO:4) and reverse primer 5′-[…]-3′ (SEQ ID NO:5) amplify a 65 by region coding for amino acid residues 120-140. The 5′-[…]-3′ (SEQ ID NO:6) GusB probe overlaps the exon 2 and 3 boundary. PCR was carried out in 20 μl reactions containing cDNA from 0.4 μg total RNA, 4 μl LightCycler TaqMan Master mix (Roche, Indianapolis, Ind.) and 0.5 μl 20× TaqMan Mix (Applied Biosystems, Foster City, Calif.) for AR or MAGE-11, or 0.5 μM primer and 0.2 μM probe for GusB. PCR reactions were 1 cycle at 95° C. for 10 min followed by 55 cycles of 95° C. for 15 sec, 60° C. for 25 sec and 72° C. for 1 sec in a Roche Lightcycler. […] Results were averaged from duplicates of 6 or 10 cm dishes of ECC-1 or Ishikawa cell cultures.

MAGE-11 mRNA [2] = experiment: MAGE-11 mRNA by real-time PCR in Ishikawa cells; type: cell-based, human; conditions: for change in MAGE-11 mRNA levels: 100 Units/ml hCG, 10 nM progesterone, 10 nM DHT or 10 ng/ml EGF
Procedure: as §1

Flag-MAGE-11 = conditions: COS cells, with wild-type AR, 2 and 10 nM DHT, 24 h
AR mRNA = AR mRNA by real-time PCR in ECC-1 cells; type: cell-based, human
Procedure: as §1

PR-B [3] = experiment: PR immunoblot in ECC-1 cells; type: cell-based, human; conditions: 10 nM E2 for 48 h
Procedure: (§2) Immunoblot analysis. MAGE-11, AR, PR and ERα protein levels in ECC-1 (2×10^6/6 cm dish) and Ishikawa cells (4×10^6/10 cm dish) were determined by immunoblot. Cells were plated in medium without phenol red containing 5% charcoal stripped serum after culturing in the same media for 4 days. Cells were treated, washed and harvested in cold phosphate buffered saline containing 1 mM dithiothreitol, 1 mM phenylmethylsulfonyl fluoride, 5 μg/ml leupeptin, 5 μg/ml pepstatin A and 5 μg/ml aprotinin, and solubilized in buffer containing 1% Triton X-100, 0.15 M NaCl, 0.5 mM EDTA, 1% sodium deoxycholate, 0.1% SDS, 50 mM Tris-HCl, pH 7.4 and protease inhibitors listed above. […] Protein concentration was determined by BioRad assay using bovine serum albumin as standard.

PR-B [4] = experiment: PR immunoblot in Ishikawa cells; type: cell-based, human; conditions: 10 nM E2 for 48 h
Procedure: as §2

MAGE-11 protein = experiment: MAGE-11 immunoblot in Ishikawa cells; type: cell-based, human; conditions: 10 nM E2, 48 h
Procedure: as §2

MAGE-11 mRNA [5] = experiment: MAGE-11 mRNA by real time RT-PCR in LNCaP cells; type: cell-based, human

For C[C@]12CCC(=O)C[C@@H]1CC[C@@H]1[C@@H]2CC[C@]2(C)[C@@H](O)CC[C@@H]12 [DHT, dihydrotestosterone], the “change in MAGE-11 mRNA levels” value (MAGE-11 mRNA [1]; ECC-1 cells) was “unchanged”, the “change in MAGE-11 mRNA levels” value (MAGE-11 mRNA [2]) was “unchanged” and the “effect on MAGE-11 protein levels” value (Flag-MAGE-11) was “declined”.
With C[C@]12CC[C@@H]3c4ccc(O)cc4CC[C@H]3[C@@H]1CC[C@@H]2O [E2, 17β-estradiol] the “time required for inhibitory effect on MAGE-11 mRNA” value (MAGE-11 mRNA [1]; ECC-1 cells) was “more than 6 h”, the “effect on increase in MAGE-11 mRNA levels during culture” value (MAGE-11 mRNA [1]; ECC-1 cells, 0.01 nM E2, dose response, 48 h) was “partial inhibition” and the “effect on increase in MAGE-11 mRNA levels during culture” value (MAGE-11 mRNA [1]; ECC-1 cells, 10 nM E2, 72 h culture in phenol red-free, charcoal stripped serum medium) was “blocked”. The “effect on cAMP induced increase in MAGE-11 mRNA” value (MAGE-11 mRNA [1]; ECC-1 cells, 10 nM E2 with 2 mM dibutyryl-cAMP, greater extent than in Ishikawa cells) was “inhibited”, the “concentration required to partially inhibit MAGE-11 expression relative to that required to increase AR expression (fold less)” value (MAGE-11 mRNA [1]; endometrial cell lines) was about 100 fold and the “effect on cAMP induced increase in MAGE-11 mRNA” value (MAGE-11 mRNA [2]; 10 nM E2 with dibutyryl-cAMP, 48 h, lesser extent than in ECC-1 cells) was “inhibited”. For the same compound, the “increase in AR mRNA levels” value (AR mRNA; 10 nM E2) was about 3 fold, the “E2 concentration required to increase AR mRNA” value (AR mRNA; dose response, 48 h) was 1 nM and the “effect on PR-B levels” value (PR-B [3]) was “increased”. The “effect on PR-B levels” value (PR-B [4]) was “increased”, the “effect on ~67 kDa MAGE-11 protein level” value (MAGE-11 protein) was “declined” and the “effect on cyclic-AMP induction of MAGE-11 mRNA” value (MAGE-11 mRNA [5]) was “not inhibited”.
With C[C@]12CC[C@@H]3c4ccc(O)cc4C[C@@H](CCCCCCCCC[S+]([O-])CCCC(F)(F)C(F)(F)F)[C@H]3[C@@H]1CC[C@@H]2O (stereo partly shown) [ICI-182,780] the “effect on MAGE-11 mRNA levels” value (MAGE-11 mRNA [1]; ECC-1 cells, 1 μM ICI-182,780 in the absence and presence of E2 (0.1 nM), 48 h) was “increased” and the “effect on E2 induced increase in AR mRNA” value (AR mRNA; 1 μM ICI-182,780) was “blocked”.
With C=C[C@@]1(C)CC(=O)[C@]2(O)[C@@]3(C)[C@@H](O)CCC(C)(C)[C@@H]3[C@H](O)[C@H](OC(C)=O)[C@@]2(C)O1 [forskolin] the “increase in MAGE-11 mRNA levels” value (MAGE-11 mRNA [1]; ECC-1 cells, 50 μM) was about 4 fold and the “increase in MAGE-11 mRNA levels” value (MAGE-11 mRNA [2]; 50 μM) was about 4 fold.
With CC(=O)[C@H]1CC[C@H]2[C@@H]3CCC4=CC(=O)CC[C@]4(C)[C@H]3CC[C@]12C [progesterone] the “MAGE-11 mRNA with progesterone after E2 pretreatment” value (MAGE-11 mRNA [1]; ECC-1 cells, pretreatment with 10 nM E2 for 48 h (data not shown)) was “no increase”, the “change in MAGE-11 mRNA levels” value (MAGE-11 mRNA [1]; ECC-1 cells) was “unchanged” and the “change in MAGE-11 mRNA levels” value (MAGE-11 mRNA [2]) was “unchanged”. For the same compound, the “MAGE-11 mRNA with progesterone after E2 pretreatment” value (MAGE-11 mRNA [2]; pretreatment with 10 nM E2 for 48 h (data not shown)) was “no increase”.
“EGF: EGF growth factor, used at 10 ng/ml” was tested, and the “change in MAGE-11 mRNA levels” value (MAGE-11 mRNA [1]; ECC-1 cells) was “unchanged” and the “change in MAGE-11 mRNA levels” value (MAGE-11 mRNA [2]) was “unchanged”.
